We go through three molecules from article PMC10689823, “Discovery of a Drug-like, Natural Product-Inspired DCAF11 Ligand Chemotype” (Nature Communications, 2023).

Assay type in all cases: cell-based
Series [1] addresses T1, BRD2 (Homo sapiens, UniProt P25440). In words: BRD2 levels by Western blot in Jurkat cells. The settings on record: for degradation of BRD2: 3 µM, 6 h treatment. On the set-up: endogenous in cells; host or cells: Jurkat; Hep G2; MDA-MB-231; KBM7 (WT, DCAF11 KO, DDB1 KO); Dmax: dose or concentration left out as unconfirmed. Here is the method:
(§1) Cells were washed with PBS and lysed in lysis buffer (50 mM Tris-HCl, pH 7.4, 150 mM NaCl, 1% Triton X-100, 1% sodium deoxycholate, 0.1% SDS) with complete protease inhibitor cocktail (Roche, 11836170001) for 30 min on ice. For Ramos cells, cell pellets were lysed in lysis buffer (50 mM Tris-HCl, pH 8, 150 mM NaCl, 1% NP-40, 0.5% sodium deoxycholate) with complete protease inhibitor cocktail. After centrifugation at 16,000 x g, the supernatant was transferred into a new tube and the protein concentration was determined by DC protein assay (BIO-RAD, 5000116). Proteins were separated by SDS-PAGE and transferred to a PVDF membrane (Thermo scientific, 0.45 μm, 88518). For PDEδ, BRD2, GAPDH, BRD4, Vinculin and BTK, the membranes were blocked with Intercept® Blocking Buffer (LI-COR Biosciences, 927-70001) at room temperature for 1 h. The primary antibodies for these proteins were diluted with Intercept® Blocking Buffer (1:500 for PDEδ, 1:3000 for Vinculin, and 1:1000 for other proteins) and incubated with the membranes overnight at 4 °C. Membranes were washed with PBS + 0.1% Tween 20 (PBS-T) five times and incubated with secondary antibodies conjugated to IRDye® Infrared Fluorescent Dyes (1:5000, LI-COR Biosciences) at room temperature for 1 h with protection from light. After washing the membrane, signals were visualized using the ChemiDoc MP Imaging System (BIO-RAD Laboratories). For detection of LC3B, BRD3, BLK, DCAF11, DDB1 RBX1, FIP200, V5- and FLAG-Tag the membranes were blocked with 5% milk in PBS-T at room temperature for 1 h. The primary antibodies for these proteins were diluted in 5% milk in PBS-T buffer (1:200 for BRD3, 1:1000 for other proteins) and incubated with the membranes overnight at 4 °C. Membranes were washed with PBS-T five times and incubated with HRP secondary antibodies (1:1500) at room temperature for 1 h. After washing the membrane, protein detection was performed using Western blotting detection reagent (Thermo Scientific, 34095) and the ChemiDoc MP Imaging System (BIO-RAD). Relative band intensities were quantified using Image Lab (BIO-RAD).
(In general: A western blot detects proteins with antibodies after separation by electrophoresis.)

Series [2] is described as follows: Cell viability assay (CellTiter-Glo) in Jurkat cells. The conditions noted are these: human, Jurkat cells; for viability at 72 h, 10 nmol/L: concentration 10 nmol/L; for viability at 72 h, 30 nmol/L: concentration 30 nmol/L; for viability at 72 h, 100 nmol/L: concentration 100 nmol/L; for viability at 72 h, 1000 nmol/L: concentration 1000 nmol/L; for viability at 72 h, 3000 nmol/L: concentration 3000 nmol/L; for viability at 72 h, 0.01 µM: 10 nM; for viability at 72 h, 0.03 µM: 30 nM; for viability at 72 h, 0.1 µM: 100 nM; for viability at 72 h, 0.3 µM: 300 nM; for viability at 72 h, 1 µM: 1000 nM. Put shortly: (§2)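 Jurkat and Hep G2 cells were exposed to compounds for 72 h, with an untreated plate counted at time zero. Viability was read as CellTiter-Glo luminescence after 10 min reagent incubation at room temperature.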
Background: Cellular ATP, detected with luciferase, serves as a proxy for viable cell number.

For series [3], the system named is Jurkat cells. The series is described as above. The conditions noted are these: for GI50: Homo sapiens; for GI50 / Relative cell viability (%): Jurkat cells, 72 h; for Relative cell viability (%): Fig. 4k; for Cell viability (%) relative to DMSO: individual replicates, Supplementary Fig. 7g. Put shortly: as §2
For series [4], the target named is T1, BRD2. Briefly: BRD2 levels by Western blot in KBM7 cells (WT, DCAF11 knockout, DDB1 knockout). On the set-up: endogenous in cells; host or cells: KBM7 (WT, DCAF11 KO, DDB1 KO). The settings on record: for BRD2 degradation after knockout of DDB1 in KBM7 cells: 0.5 µg/mL Dox for 3 days, then compound 4 h; for BRD2 degradation in DCAF11 knockout (KO1 and KO2) KBM7 cells: 9 at 3 μM, 10 at 10 μM, 11 at 10 μM, 6 h; for BRD2 degradation in KBM7 cells: 4 h. Here is the method:
as §1
DCAF11- or FIP200 (RB1CC1)-targeting sgRNAs were lentivirally packaged using PEI transfection of Lenti-X cells. The viral supernatant was harvested after 72 h, cleared of cellular debris by filtration through a 0.45-µm PES filter and stored in aliquots at −80 °C. The appropriate amount of viral supernatant was transduced into KBM7 cells (1 × 10^6 cells/mL) via spinfection (2000 rpm, 1 h, 37 °C) with polybrene (8 µg/mL). Two days post transduction, the cells were selected with puromycin (1 µg/mL) for a total of 5 days, after which the knockout pools were validated via western blotting.

For series [5], the target named is T2, BRD4(S)-BFP (Homo sapiens, UniProt O60885).
T2 construct: BRD4 short isoform (amino acids 1-719; Twist Bioscience); V5; P2A-mCherry (mCherry split off by P2A self-cleavage) (C, cleaved yes); expressed in transfected cells; host or cells: KBM7 iCas9 cells, lentiviral SFFV-BRD4(S)-mTagBFP-P2A-mCherry
Briefly: Flow cytometry-based BRD4 reporter assay (DCAF11 knockout/rescue). The conditions noted are these: 6 h, 10 at 5 µM, 9 at 1 µM, dBET6 at 0.5 µM, DMSO = 1. The method, then:
Stable BRD4(S)-BFP reporter KBM7 iCas9 cell line was generated as previously described. […] Cells were subsequently washed, resuspended in FACS buffer and analyzed on LSRFortessa (BD Biosciences). Flow cytometry data was analyzed in FlowJo (v10.8.1). BFP and mCherry mean fluorescence intensity (MFI) values for were normalized by background subtraction of the respective values from reporter negative KBM7 wild type cells.
For orientation: A flow cytometer gives signals particle by particle.

Where [6] appears, read: individual replicates, Supplementary Fig. 7g, read-out: Cell viability (%) relative to DMSO.
Where [7] appears, read: 72 h, Fig. 4k, read-out: Relative cell viability (%).
Where [8] appears, read: KBM7 iCas9 BRD4(S)-BFP reporter cells, WT.
[9] abbreviates: reporter cells, DCAF11 KO + WT cDNA.

Several values for one entry are separate records, joined by “and”; a condition that tells them apart may be missing. Identical values can stand only once. A value given as a limit tells only on which side of the number the result lay.

T1 sequence (P25440 whole entry): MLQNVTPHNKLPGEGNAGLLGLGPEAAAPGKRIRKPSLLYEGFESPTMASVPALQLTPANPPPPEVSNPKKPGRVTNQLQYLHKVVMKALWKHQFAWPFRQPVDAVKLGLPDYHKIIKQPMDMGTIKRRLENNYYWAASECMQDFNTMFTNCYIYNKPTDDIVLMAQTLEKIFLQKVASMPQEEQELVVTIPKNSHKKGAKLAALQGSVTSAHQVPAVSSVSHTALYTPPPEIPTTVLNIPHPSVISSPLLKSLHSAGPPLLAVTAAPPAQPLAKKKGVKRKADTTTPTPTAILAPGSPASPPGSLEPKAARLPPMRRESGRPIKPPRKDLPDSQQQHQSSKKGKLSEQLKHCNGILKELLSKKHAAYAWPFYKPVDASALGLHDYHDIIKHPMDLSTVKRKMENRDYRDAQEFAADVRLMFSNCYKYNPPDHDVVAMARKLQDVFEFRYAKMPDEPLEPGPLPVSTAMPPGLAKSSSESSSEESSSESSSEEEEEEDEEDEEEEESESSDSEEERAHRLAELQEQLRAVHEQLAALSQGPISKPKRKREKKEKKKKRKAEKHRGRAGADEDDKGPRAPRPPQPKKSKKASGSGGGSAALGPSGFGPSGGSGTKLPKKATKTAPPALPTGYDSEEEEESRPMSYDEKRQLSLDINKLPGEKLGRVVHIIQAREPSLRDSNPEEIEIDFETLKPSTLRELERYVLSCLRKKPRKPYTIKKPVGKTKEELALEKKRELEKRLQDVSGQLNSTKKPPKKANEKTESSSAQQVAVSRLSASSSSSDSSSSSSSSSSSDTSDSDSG

By viability is commonly meant a read-out of living cells in per cent, often relative to untreated cells. A word on the GI50: it is the concentration at which growth is held to half of that of the control. As to `O=C1Nc2ccc(Br)cc2C1=Cc1cc(Br)c(O)c(Br)c1` [Compound 2], the “BRD2 protein levels, ligands alone or in combination” value in series [1] (3 μM, 4 h) is recorded as “did not reduce BRD2 protein levels”. Further, the viability at 72 h, 10 nmol/L in series [2] (setting [6]) is 95.2%. The viability at 72 h, 30 nmol/L in series [2] (setting [6]) stood at 91.8%. For the same molecule, the viability at 72 h, 100 nmol/L in series [2] (setting [6]) came out at 87.9%. Also, the viability at 72 h, 300 nmol/L in series [2] (concentration 300 nmol/L, individual replicates, Supplementary Fig. 7g, read-out: Cell viability (%) relative to DMSO) stood at 89.9%. Also, in series [2] (setting [6]), the viability at 72 h, 1000 nmol/L stood at 90.3%. Moreover, the viability at 72 h, 3000 nmol/L in series [2] (setting [6]) amounted to 86.4%. For the same molecule, the viability at 72 h, 30000 nmol/L in series [2] (concentration 30000 nmol/L, individual replicates, Supplementary Fig. 7g, read-out: Cell viability (%) relative to DMSO) is 44.6%. Also, the viability at 72 h, 0.01 µM in series [2] (setting [7]) is 98.6%. Also, the viability at 72 h, 0.03 µM in series [2] (setting [7]) was found to be 96.8%. Further, the viability at 72 h, 0.1 µM in series [2] (setting [7]) came to 93.4%. The viability at 72 h, 0.3 µM in series [2] (setting [7]) came to 95.1%. Moreover, in series [2] (setting [7]), the viability at 72 h, 1 µM came out at 96.9%. Further, in series [2] (72 h, 3000 nM, Fig. 4k, read-out: Relative cell viability (%)), the viability at 72 h, 3 µM is 93.5%. In series [2] (72 h, 10000 nM, Fig. 4k, read-out: Relative cell viability (%)), the viability at 72 h, 10 µM was determined as 80.3%. Besides, the viability at 72 h, 30 µM in series [2] (72 h, 30000 nM, Fig. 4k, read-out: Relative cell viability (%)) turned out to be 59.8%. In addition, the GI50 in series [3] is more than 30000 nM. Besides, the “Relative cell viability (%)” value was 109.397% and 95.8659% in series [3] (10 nM, 0.01 µM); 109.179% and 98.227% in series [3] (30 nM, 0.03 µM); 109.452% and 110.948% in series [3] (100 nM, 0.1 µM); 108.619% and 101.195% in series [3] (300 nM, 0.3 µM); 100.635% and 106.748% in series [3] (1000 nM, 1 µM); 102.832% and 100.062% in series [3] (3000 nM, 3 µM). For the same molecule, the “Relative cell viability (%)” value in series [3] (10000 nM, 10 µM) was 99.6522% and 88.024%; in series [3] (30000 nM, 30 µM), 74.0357% and 70.3951%. Besides, the “Cell viability (%) relative to DMSO” value in series [3] (concentration 10 nmol/L) is 103.951% and 104.068%; in series [3] (concentration 30 nmol/L), 103.682% and 105.344%; in series [3] (concentration 100 nmol/L) it was 100.341% and 100.604%; in series [3] (concentration 300 nmol/L), 97.5611% and 103.704%; in series [3] (concentration 1000 nmol/L) it was 98.2177% and 99.0254%; in series [3] (concentration 3000 nmol/L) it was 82.942% and 99.8195%. The “Cell viability (%) relative to DMSO” value is 67.1883% and 83.6742% and 92.9267% in series [3] (concentration 10000 nmol/L); 49.2545% and 60.9936% in series [3] (concentration 30000 nmol/L).

In the case of `Cc1sc2c(c1C)C(c1ccc(Cl)cc1)=NC(CC(=O)NCCOCCOCCOCCOc1c(Br)cc(C=C3C(=O)Nc4ccc(Br)cc43)cc1Br)c1nnc(C)n1-2` (stereo not shown) [Compound 10], the “degradation of BRD2” value in series [1] is “potent degradation activity”. Further, the remaining activity at 3 µM in series [1] (Jurkat, 6 h, 3 μM, 6 h, Fig. 4j, read-out: BRD2/Vinculin intensity (relative to DMSO control group)) stood at 30.7%. Also, in series [4], the “BRD2 degradation after knockout of DDB1 in KBM7 cells” value was “did not lead to BRD2 degradation anymore”; the “BRD2 degradation in DCAF11 knockout (KO1 and KO2) KBM7 cells” value was “abolished”; the “BRD2 degradation in KBM7 cells” value is “displayed BRD2-degrading activity”. In series [2] (setting [6]), the viability at 72 h, 10 nmol/L turned out to be 89.7% and the viability at 72 h, 30 nmol/L worked out at 90.1%. For the same molecule, in series [2] (setting [7]), the viability at 72 h, 0.1 µM is 70.8%; the viability at 72 h, 0.3 µM was 33.9%; the viability at 72 h, 1 µM turned out to be 1.17%. In addition, it took 190 ± 30 nM to inhibit growth in series [3] by half (GI50). In addition, the “norm BRD4 abundance” value in series [5] (setting [8]) is on record as 0.5147. Moreover, the “norm BRD4 abundance” value in series [5] (setting [9]) is 0.5732. Further, the “norm BRD4 abundance” value in series [5] (reporter cells, DCAF11 KO) amounted to 0.8082.

The Dmax is the largest share of the target that was removed. `Cc1sc2c(c1C)C(c1ccc(Cl)cc1)=N[C@@H](CC(=O)NCCOCCOCCOCCOCCNC(=O)COc1c(Br)cc(/C=C3\C(=O)Nc4ccc(Br)cc43)cc1Br)c1nnc(C)n1-2` [Compound 9]: the “degradation of BRD2” value in series [1] is given as “potent degradation activity”. Besides, the “BRD2 levels after washout” value in series [1] (10 μM, 5 h prior to washout) is on record as “did not recover”. Further, the DC50 in series [1] (6 h, read-out: half-maximal degradation concentration (DC50) of BRD2) came to 255 nM. Moreover, the Dmax in series [1] (6 h, read-out: maximum level of degradation (Dmax) of BRD2) was 84%. Further, the “hook effect for BRD2” value in series [1] (6 h, up to 50 µM concentration) is given as “almost no hook effect”. Besides, in series [4], the “BRD2 degradation after knockout of DDB1 in KBM7 cells” value is “did not lead to BRD2 degradation anymore”; the “BRD2 degradation in DCAF11 knockout (KO1 and KO2) KBM7 cells” value is “abolished”; the “BRD2 degradation in KBM7 cells” value is “displayed BRD2-degrading activity”. Further, in series [2] (setting [6]), the viability at 72 h, 10 nmol/L stood at 89.8%; the viability at 72 h, 30 nmol/L worked out at 92.8%; the viability at 72 h, 100 nmol/L was found to be 101%; the viability at 72 h, 1000 nmol/L was 13%. Moreover, the viability at 72 h, 3000 nmol/L in series [2] (setting [6]) worked out at 1.47%. In series [2] (setting [7]), the viability at 72 h, 0.01 µM amounted to 100%; the viability at 72 h, 0.03 µM was 92%; the viability at 72 h, 0.1 µM stood at 64.6%. In series [3], this molecule yielded a GI50 of 90 ± 20 nM. Besides, the “norm BRD4 abundance” value in series [5] (setting [8]) was determined as 0.4125. In addition, the “norm BRD4 abundance” value in series [5] (setting [9]) was 0.4289. In series [5] (reporter cells, DCAF11 KO), the “norm BRD4 abundance” value was determined as 0.7503.
